From patent publication US12083089B2, “Compositions and methods for stimulating ventilatory and/or respiratory drive” (CASE WESTERN RESERVE UNIVERSITY, priority 2015, dated 2024)

Assays:
freely moving rats = experiment: Tail-flick latency (TFL) test; type: in vivo, rat; details: for Tail-Flick latency: vehicle-pretreated rats, morphine 10 mg/kg IV
[1] = test system: freely moving adult male Sprague-Dawley rats; experiment: Whole-body plethysmography of ventilatory parameters in morphine-treated rats; details: morphine 10 mg/kg IV; for EF50, ml/sec - Total Response (% change) / Expiratory Drive (TV/Te), ml/sec - Total Response (% change) / Expiratory Time (Te), sec - Total Response (% change) / Frequency, breaths/min - Total Response (% change) / Inspiratory Drive (TV/Ti), ml/sec - Total Response (% change) / Inspiratory Time (Ti), sec - Total Response (% change) / Inspiratory Time/Expiratory Time - Total Response (% change) / Minute Ventilation, ml/min - Total Response (% change) / Peak Expiratory Flow, ml/sec - Total Response (% change) / Peak Expiratory Flow/Peak Inspiratory Flow - Total Response (% change) / Peak Inspiratory Flow, ml/sec - Total Response (% change) / Tidal Volume (TV), ml - Total Response (% change): over the 15 min before drug injection
Method: Permissions, rats, surgical procedures and blinding of protocols. All studies were carried out in accordance with the NIH Guide for the Care and Use of Laboratory Animals (NIH Publication No. […]) revised in 1996. The protocols were approved by the Animal Care and Use Committees of the University of Virginia, Case Western Reserve University and Loma Linda University. In addition, all studies were carried out in compliance with the ARRIVE (Animal Research: Reporting of In Vivo Experiments) guidelines. Adult male Sprague-Dawley rats (Harlan, Madison, WI, USA) were implanted with jugular vein catheters under 2% isoflurane anesthesia and some rats received femoral arterial catheters. The rats were allowed at least four days to recover from surgery before use. All arterial catheters were flushed daily with heparin solution (50 units of heparin in phosphate-buffered saline at 0.1 M, pH 7.4). All catheters were flushed with phosphate-buffered saline (0.1 M, pH 7.4) approximately four hours before commencement of the experiments. All studies were performed in a quiet laboratory with relative humidity of 49±2% and room temperature of 21.4±0.2° C. […] Also, please note that the antinociception and ventilatory studies were done in separate groups of rats so as to not complicate the respiratory measurements. The recording (plethysmography, antinociception) sessions and the arterial blood gas assays were done by a particular investigator who administered the opioid, vehicle or test drug such as d-cystine diME. The syringes containing the vehicle or test drug were made up by another investigator, such that the investigator running the actual experiment was blinded to the treatment protocol. In every case, the data files resulting from a particular study were first collated and analyzed by another investigator in the group.
Ventilatory parameters were recorded in freely moving rats by whole body plethysmography (PLY3223; Data Sciences International, St. Paul, MN). The rats were placed in individual chambers and given 60 min to acclimatize to allow true resting ventilatory parameters to be established. […] The rats received another injection of vehicle or 1-NACme (500 μmol/kg, IV) 15 min later and ventilatory parameters were recorded for a further 60 min.
The provided software (Fine Pointe, BUXCO) constantly corrected digitized values for changes in chamber temperature and humidity. Pressure changes associated with the respiratory waveforms were then converted to volumes (i.e., TV, PIF and PEF) using the algorithm of Epstein and colleagues. Specifically, factoring in chamber temperature and humidity, the cycle analyzers filtered the acquired signals, and BUXCO algorithms (Fine Pointe) generated an array of box flow data that identified a waveform segment as an acceptable breath. From that data vector, the minimum and maximum values were determined. Flows at this point were considered to be “box flow” signals.
The recorded data (1 min bins) and derived parameters, Vt/Ti and Response Area (cumulative percent changes from pre-values) were taken for statistical analyses. The pre-drug 1 min bins excluded occasional marked deviations from resting due to movements or scratching by the rats. These exclusions ensured accurate determinations of baseline parameters. The data are presented as mean±SEM. All data unless other-wise stated (see immediately below) were analyzed by one-way or two-way analysis of variance followed by Student's modified t test with Bonferroni corrections for multiple comparisons between means using the error mean square terms from each ANOVA. A value of P<0.05 denoted the initial level of statistical significance that was modified according to the number of comparisons between means.

[2] = freely moving rats, then d-cystine diEE 500 μmol/kg IV 15 min later
[3] = rats that subsequently received D-Cystine diEE
[4] = rats that subsequently received vehicle, D-Cystine diEE study
[5] = rats that subsequently received D-Cystine
[6] = rats that subsequently received L-NACme
[7] = rats that subsequently received vehicle, D-Cystine study
[8] = rats that subsequently received vehicle, L-NACme study

CN1CC[C@]23c4c5ccc(O)c4O[C@H]2[C@@H](O)C=C[C@H]3[C@H]1C5 [Morphine, morphine]
duration of the increase in TFL (freely moving rats; morphine 10 mg/kg IV in vehicle-treated rats): at least 4 h
Tail-Flick latency (freely moving rats; post-morphine - 30 min): 12 ± 0.0 s
Tail-Flick latency (freely moving rats; post-morphine - 60 min): 12 ± 0.0 s
Tail-Flick latency (freely moving rats; post-morphine - 90 min): 11.7 ± 0.2 s
Tail-Flick latency (freely moving rats; post-morphine - 120 min): 11.1 ± 0.2 s
Tail-Flick latency (freely moving rats; post-morphine - 180 min): 8.3 ± 0.3 s
Tail-Flick latency (freely moving rats; post-morphine - 210 min): 5.6 ± 0.3 s
Tail-Flick latency (freely moving rats; post-morphine - 240 min): 4.3 ± 0.3 s
Tail-Flick latency (freely moving rats; post-morphine - 360 min): 3.3 ± 0.3 s
changes in EF50 [1, 2]: sustained increase
changes in expiratory drive (TV/Te) [1, 2]: relatively pronounced but shorter-lived decrease
changes in expiratory time (Te) [1, 2]: decreases in Te
changes in frequency of breathing (Freq) [1, 2]: brief increase in Freq that was followed a relatively transient decrease
changes in inspiratory drive (TV/Ti) [1, 2]: prompt and sustained decrease
changes in inspiratory time (Ti) [1, 2]: sustained increases in Ti
changes in minute ventilation (MV) [1, 2]: transient increase in MV that was followed by a sustained decrease
changes in peak expiratory flow (PEF) [1, 2]: lesser decreases
changes in peak inspiratory flow (PIF) [1, 2]: pronounced and sustained decrease
changes in tidal volume (TV) [1, 2]: prompt and sustained decrease
EF50, ml/sec - Total Response (% change) [1, 3]: +33.4 ± 15.0 %
Expiratory Drive (TV/Te), ml/sec - Total Response (% change) [1, 3]: −14.6 ± 10.2%
Expiratory Time (Te), sec - Total Response (% change) [1, 3]: −2.0 ± 6.1%
Frequency, breaths/min - Total Response (% change) [1, 3]: −1.9 ± 6.6%
Inspiratory Drive (TV/Ti), ml/sec - Total Response (% change) [1, 3]: −44.5 ± 5.5 %
Inspiratory Time (Ti), sec - Total Response (% change) [1, 3]: +40.2 ± 6.3 %
Inspiratory Time/Expiratory Time - Total Response (% change) [1, 3]: −27.1 ± 6.2 %
Minute Ventilation, ml/min - Total Response (% change) [1, 3]: −28.4 ± 6.4 %
Peak Expiratory Flow, ml/sec - Total Response (% change) [1, 3]: −16.2 ± 5.7 %
Peak Expiratory Flow/Peak Inspiratory Flow - Total Response (% change) [1, 3]: +21.5 ± 6.7 %
Peak Inspiratory Flow, ml/sec - Total Response (% change) [1, 3]: −29.7 ± 2.7 %
Tidal Volume (TV), ml - Total Response (% change) [1, 3]: −26.3 ± 7.4 %
EF50, ml/sec - Total Response (% change) [1, 4]: +30.5 ± 14.7 %
Expiratory Drive (TV/Te), ml/sec - Total Response (% change) [1, 4]: −22.3 ± 13.6%
Expiratory Time (Te), sec - Total Response (% change) [1, 4]: −4.7 ± 6.0%
Frequency, breaths/min - Total Response (% change) [1, 4]: +0.3 ± 4.3%
Inspiratory Drive (TV/Ti), ml/sec - Total Response (% change) [1, 4]: −44.3 ± 7.1 %
Inspiratory Time (Ti), sec - Total Response (% change) [1, 4]: +38.6 ± 2.9 %
Inspiratory Time/Expiratory Time - Total Response (% change) [1, 4]: −24.1 ± 4.7 %
Minute Ventilation, ml/min - Total Response (% change) [1, 4]: −28.6 ± 7.2 %
Peak Expiratory Flow, ml/sec - Total Response (% change) [1, 4]: −17.4 ± 6.1 %
Peak Expiratory Flow/Peak Inspiratory Flow - Total Response (% change) [1, 4]: +27.6 ± 7.0 %
Peak Inspiratory Flow, ml/sec - Total Response (% change) [1, 4]: −29.5 ± 8.1 %
Tidal Volume (TV), ml - Total Response (% change) [1, 4]: −29.3 ± 7.6 %
Frequency: Morphine - first 15 min response (%) [1, 5]: −4.7 ± 3.1%
Frequency: Morphine - peak (+) response (%) [1, 5]: +62 ± 7 %
Frequency: Morphine peak (−) response (%) [1, 5]: −23 ± 4 %
Minute Ventilation: Morphine - first 15 min response (%) [1, 5]: −38 ± 5 %
Minute Ventilation: Morphine - peak (+) response (%) [1, 5]: +14 ± 3 %
Minute Ventilation: Morphine peak (−) response (%) [1, 5]: −61 ± 8 %
Tidal Volume: Morphine - first 15 min response (%) [1, 5]: −35 ± 5 %
Tidal Volume: Morphine - peak (+) response (%) [1, 5]: −30 ± 4 %
Tidal Volume: Morphine peak (−) response (%) [1, 5]: −51 ± 6 %
EF50, ml/sec - Peak Responses (% change) [1, 3]: +122 ± 27 %
Expiratory Drive (TV/Te), ml/sec - Peak Responses (% change) [1, 3]: −46.2 ± 7.8 %
Expiratory Time (Te), sec - Peak Responses (% change) [1, 3]: −32.4 ± 17.6%
Frequency, breaths/min - Peak Responses (% change) [1, 3]: −20.0 ± 4.5 %
Inspiratory Drive (TV/Ti), ml/sec - Peak Responses (% change) [1, 3]: −53.7 ± 6.0 %
Inspiratory Time (Ti), sec - Peak Responses (% change) [1, 3]: +41.3 ± 7.1 %
Inspiratory Time/Expiratory Time - Peak Responses (% change) [1, 3]: −41.7 ± 7.8 %
Minute Ventilation, ml/min - Peak Responses (% change) [1, 3]: −48.5 ± 6.0 %
Peak Expiratory Flow, ml/sec - Peak Responses (% change) [1, 3]: −34.8 ± 6.7 %
Peak Expiratory Flow/Peak Inspiratory Flow - Peak Responses (% change) [1, 3]: +26.7 ± 5.4 %
Peak Inspiratory Flow, ml/sec - Peak Responses (% change) [1, 3]: −43.2 ± 2.7 %
Tidal Volume (TV), ml - Peak Responses (% change) [1, 3]: −35.8 ± 6.9 %
Frequency: Morphine - first 15 min response (%) [1, 6]: −4.9 ± 2.8%
Frequency: Morphine - peak (+) response (%) [1, 6]: +42 ± 6 %
Frequency: Morphine peak (−) response (%) [1, 6]: −22 ± 4 %
Minute Ventilation: Morphine - first 15 min response (%) [1, 6]: −35 ± 3 %
Minute Ventilation: Morphine - peak (+) response (%) [1, 6]: +20 ± 6 %
Minute Ventilation: Morphine peak (−) response (%) [1, 6]: −54 ± 4 %
Tidal Volume: Morphine - first 15 min response (%) [1, 6]: −34 ± 3 %
Tidal Volume: Morphine - peak (+) response (%) [1, 6]: −16 ± 6 %
Tidal Volume: Morphine peak (−) response (%) [1, 6]: −40 ± 6 %
EF50, ml/sec - Peak Responses (% change) [1, 4]: +133 ± 42 %
Expiratory Drive (TV/Te), ml/sec - Peak Responses (% change) [1, 4]: −51.5 ± 10.1 %
Expiratory Time (Te), sec - Peak Responses (% change) [1, 4]: −29.3 ± 17.1%
Frequency, breaths/min - Peak Responses (% change) [1, 4]: −21.5 ± 3.4 %
Inspiratory Drive (TV/Ti), ml/sec - Peak Responses (% change) [1, 4]: −52.7 ± 5.4 %
Inspiratory Time (Ti), sec - Peak Responses (% change) [1, 4]: +37.9 ± 3.0 %
Inspiratory Time/Expiratory Time - Peak Responses (% change) [1, 4]: −38.0 ± 4.2 %
Minute Ventilation, ml/min - Peak Responses (% change) [1, 4]: −51.2 ± 6.3 %
Peak Expiratory Flow, ml/sec - Peak Responses (% change) [1, 4]: −38.1 ± 8.5 %
Peak Expiratory Flow/Peak Inspiratory Flow - Peak Responses (% change) [1, 4]: +30.2 ± 3.4 %
Peak Inspiratory Flow, ml/sec - Peak Responses (% change) [1, 4]: −45.6 ± 7.0 %
Tidal Volume (TV), ml - Peak Responses (% change) [1, 4]: −42.9 ± 8.7 %
Frequency: Morphine - first 15 min response (%) [1, 7]: −3.8 ± 2.6%
Frequency: Morphine - peak (+) response (%) [1, 7]: +57 ± 8 %
Frequency: Morphine peak (−) response (%) [1, 7]: −21 ± 3 %
Minute Ventilation: Morphine - first 15 min response (%) [1, 7]: −39 ± 4 %
Minute Ventilation: Morphine - peak (+) response (%) [1, 7]: +9 ± 3 %
Minute Ventilation: Morphine peak (−) response (%) [1, 7]: −60 ± 9 %
Tidal Volume: Morphine - first 15 min response (%) [1, 7]: −37 ± 6 %
Tidal Volume: Morphine - peak (+) response (%) [1, 7]: −32 ± 5 %
Tidal Volume: Morphine peak (−) response (%) [1, 7]: −49 ± 5 %
Frequency: Morphine - first 15 min response (%) [1, 8]: −4.0 ± 2.1%
Frequency: Morphine - peak (+) response (%) [1, 8]: +47 ± 6 %
Frequency: Morphine peak (−) response (%) [1, 8]: −24 ± 3 %
Minute Ventilation: Morphine - first 15 min response (%) [1, 8]: −36 ± 3 %
Minute Ventilation: Morphine - peak (+) response (%) [1, 8]: +19 ± 5 %
Minute Ventilation: Morphine peak (−) response (%) [1, 8]: −53 ± 5 %
Tidal Volume: Morphine - first 15 min response (%) [1, 8]: −33 ± 4 %
Tidal Volume: Morphine - peak (+) response (%) [1, 8]: −19 ± 3 %
Tidal Volume: Morphine peak (−) response (%) [1, 8]: −38 ± 5 %
